We go through 3 compounds from patent publication US8962616B2, “Heterocyclic substituted hexahydropyrano[3,4-d][1,3]thiazin-2-amine compounds” (Pfizer Inc., priority 2012, dated 2015).

One test has as its target BACE1 enzyme (Homo sapiens (Human), UniProt P56817). The test can be described thus: BACE1 Cell-Free Assay (fluorescence polarization, synthetic APP substrate). Format: biochemical. The settings on record: geometric mean of 2-7 determinations (values marked b: single determination). An excerpt: This assay measures the inhibition of the beta-secretase enzyme as it cleaves a non-native peptide.
A synthetic APP substrate that can be cleaved by beta-secretase having N-terminal biotin and made fluorescent by the covalent attachment of Oregon Green at the Cys residue is used to assay beta-secretase activity in the presence or absence of the inhibitory compounds. […] The BACE1 enzyme is affinity purified material from conditioned media of CHO-K1 cells that have been transfected with a soluble BACE construct (BACE1deltaTM96His). Compounds are incubated in a ½ log dose response curve from a top concentration of 100 μM with BACE1 enzyme and the biotinylated fluorescent peptide in 384-well black plates (Thermo Scientific #4318). BACE1 is at a final concentration of 0.1 nM with a final concentration of peptide substrate of 150 nM in a reaction volume of 30 μL assay buffer (100 mM sodium acetate, pH 4.5 (brought to pH with acetic acid), and 0.001% Tween-20). Plates are covered and incubated for 3 hours at 37° C. The reaction is stopped with the addition of 30 μL of 1.5 μM Streptavidin (Pierce, #21125). After a 10 minute incubation at room temperature, plates are read on a PerkinElmer Envision for fluorescent polarization (Ex485 nm/Em530 nm). The activity of the beta-secretase enzyme is detected by changes in the fluorescence polarization that occur when the substrate is cleaved by the enzyme.

For test [1], the system named is H4 human neuroglioma cells over-expressing the wild-type human APP695. Nature of the test: sAPPβ Whole-Cell Assay (in vitro sAPPb assay, ELISA). It is filed as cell-based. The following applies: 18 hours, geometric mean of 2-7 determinations (values marked b: single determination). How it is done:
Whole Cell-Free Assay (In Vitro sAPPb Assay):
H4 human neuroglioma cells over-expressing the wild-type human APP695 are treated for 18 hours with compound in a final concentration 1% DMSO. sAPPβ levels are measured using TMB-ELISA with capture APP N-terminal antibody (Affinity BioReagents, OMA1-03132), wild-type sAPPβ specific reporter p192 (Elan), and tertiary anti rabbit-HRP (GE Healthcare).

For another test, the target named is BACE2 enzyme (Homo sapiens (Human), UniProt Q9Y5Z0). Nature of the test: BACE2 Cell-free Assay (fluorescence polarization, synthetic substrate). Format: biochemical. The settings on record: single determination. The method, then:
This assay measures the inhibition of the BACE2 enzyme as it cleaves a non-native peptide. A synthetic substrate that can be cleaved by BACE2 having N-terminal biotin and made fluorescent by the covalent attachment of Oregon Green at the Cys residue is used to assay BACE2 activity in the presence or absence of the inhibitory compounds. The substrate is Biotin-[…]-C(Oregon green)-KK-OH. The BACE2 enzyme is available from Enzo Life Sciences (Cat # BML-SE550). Compounds are incubated in a ½ log dose response curve from a top concentration of 100 μM with BACE2 enzyme and the biotinylated fluorescent peptide in 384-well black plates (Thermo Scientific #4318). BACE2 is at a final concentration of 2.5 nM with a final concentration of peptide substrate of 150 nM in a reaction volume of 30 μL assay buffer (100 mM Sodium Acetate, pH 4.5 (brought to pH with acetic acid), and 0.001% Tween-20). Plates are covered and incubated for 3 hours at 37° C. The reaction is stopped with the addition of 30 μL of 1.5 μM Streptavidin (Pierce, #21125). After a 10 minute incubation at room temperature, plates are read on a PerkinElmer Envision for fluorescent polarization (Ex485 nm/Em530 nm). The activity of the beta-secretase enzyme is detected by changes in the fluorescence polarization that occur when the substrate is cleaved by the enzyme.

Each structure is given as a SMILES string. Where a name gives a salt, the structure may show the parent alone.

Chain of BACE1 enzyme (P56817 46-457): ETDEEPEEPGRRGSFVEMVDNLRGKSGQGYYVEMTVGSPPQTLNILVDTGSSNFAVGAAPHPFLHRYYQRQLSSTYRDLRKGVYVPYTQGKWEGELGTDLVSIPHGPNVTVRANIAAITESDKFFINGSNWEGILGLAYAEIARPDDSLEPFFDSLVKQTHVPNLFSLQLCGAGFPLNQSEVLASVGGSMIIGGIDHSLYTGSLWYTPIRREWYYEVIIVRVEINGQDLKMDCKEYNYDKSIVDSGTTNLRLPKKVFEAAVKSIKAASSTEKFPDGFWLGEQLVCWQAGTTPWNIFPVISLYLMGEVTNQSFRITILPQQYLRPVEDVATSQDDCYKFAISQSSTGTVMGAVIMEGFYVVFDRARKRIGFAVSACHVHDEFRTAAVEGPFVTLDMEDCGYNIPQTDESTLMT
Chain of BACE2 enzyme (Q9Y5Z0 63-518): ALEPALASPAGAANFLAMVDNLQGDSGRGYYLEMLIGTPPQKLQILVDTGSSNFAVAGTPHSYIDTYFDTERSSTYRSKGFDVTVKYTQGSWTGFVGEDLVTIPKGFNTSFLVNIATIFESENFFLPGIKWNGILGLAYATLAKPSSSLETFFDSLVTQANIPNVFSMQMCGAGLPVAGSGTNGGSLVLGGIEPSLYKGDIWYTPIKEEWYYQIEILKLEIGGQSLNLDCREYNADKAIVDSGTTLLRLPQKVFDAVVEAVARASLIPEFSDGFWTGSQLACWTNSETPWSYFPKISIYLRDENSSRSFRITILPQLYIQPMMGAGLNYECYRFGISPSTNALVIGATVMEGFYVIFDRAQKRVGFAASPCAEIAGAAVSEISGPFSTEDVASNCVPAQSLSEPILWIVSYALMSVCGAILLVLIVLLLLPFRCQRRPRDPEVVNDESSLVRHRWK

On to `Cc1nc([C@H]2C[C@H]3CSC(N)=N[C@@]3(c3ccc(F)cc3F)CO2)oc1C` [Example 15, (4aR,6R,8aS)-8a-(2,4-Difluorophenyl)-6-(4,5-dimethyl-1,3-oxazol-2-yl)-4,4-a,5,6,8,8a-hexahydropyrano[3,4-d][1,3]thiazin-2-amine], for which the IC50 at BACE1 enzyme came to 0.112 µM; in test [1] it was 0.007 µM; against BACE2 enzyme it was 2.82 µM.

`C[C@H]1SC(N)=N[C@@]2(c3ccc(F)cc3F)CO[C@@H](c3ncco3)C[C@@H]12` [Example 6, (4R,4aR,6R,8aS)-8a-(2,4-Difluorophenyl)-4-methyl-6-(1,3-oxazol-2-yl)-4,4-a,5,6,8,8a-hexahydropyrano[3,4-][1,3]thiazin-2-amine]: the IC50 against BACE1 enzyme amounted to 0.198 µM; in test [1] it was 0.032 µM; against BACE2 enzyme, 2.37 µM.

`Cc1nc([C@H]2C[C@H]3CSC(N)=N[C@@]3(c3ccc(F)cc3F)CO2)co1` [Example 11, (4aR,6R,8aS)-8a-(2,4-Difluorophenyl)-6-(2-methyl-1,3-oxazol-4-yl)-4,4-a,5,6,8,8a-hexahydropyrano[3,4-d][1,3]thiazin-2-amine, hydrochloride salt]: the IC50 stood at 0.316 µM against BACE1 enzyme, 0.034 µM in test [1] and 2.02 µM against BACE2 enzyme.
